Tests used:
Format in all cases: in vivo
[1] = system: redroot pigweed (Amaranthus retroflexus, AMARE); assay: Pre-emerge test, greenhouse herbicide activity screening; conditions: phytotoxicity rating 0-100, 14 days after application
Outline: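 Visual ratings on a 0-100 scale (0 no damage, 100 all plants dead) were taken at 14 days after treatment. Rates of 15-1000 g ai/ha in acetone, 187 l/ha, were sprayed onto soil one day after planting (pre-emerge) or onto 2-3 leaf plants with 0.25% v/v surfactant (post-emerge).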

[2] = system: barnyardgrass (Echinochloa crus-galli, ECHCG); assay: as above; conditions: phytotoxicity rating 0-100, 14 days after application
Outline: (§1)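 Compounds in acetone were track-sprayed at 15–1000 g ai/ha: pre-emergence onto soil sown the previous day, then top-watered to incorporate and later bottom-watered; post-emergence onto 2–3 leaf plants with 0.25% v/v surfactant, bottom-watered only. Ratings on a 0–100 phytotoxicity scale were taken at day 14.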

[3] = system: common ragweed (Ambrosia artemisizfolia L., AMBEL); assay: as above; conditions: phytotoxicity rating 0-100, 14 days after application
Outline: as §1

[4] = system: green foxtail (Setaria viridis, SETVI); assay: as above; conditions: phytotoxicity rating 0-100, 14 days after application
Outline: as §1

[5] = system: ivyleaf morningglory (Ipomoea hederacea, IPOHE); assay: as above; conditions: phytotoxicity rating 0-100, 14 days after application
Outline: as §1

[6] = system: johnsongrass (Sorghum halepense, SORHA); assay: as above; conditions: phytotoxicity rating 0-100, 14 days after application
Outline: as §1

[7] = system: lambsquarters (Chenopodium album, CHEAL); assay: as above; conditions: phytotoxicity rating 0-100, 14 days after application
Outline: as §1

[8] = system: large crabgrass (Digitaria sanguinalis, DIGSA); assay: as above; conditions: phytotoxicity rating 0-100, 14 days after application
Outline: as §1

[9] = system: sicklepod (Cassia obtusifolia, CASOB); assay: as above; conditions: phytotoxicity rating 0-100, 14 days after application
Outline: as §1

[10] = system: velvetleaf (Abutilon theophrasti, ABUTH); assay: as above; conditions: phytotoxicity rating 0-100, 14 days after application
Outline: as §1

[11] = system: field corn (Zea mays L., var. Dekalb 535, CORN); assay: Pre-emerge test, crop safety; conditions: crop damage rating 0-100, 14 days after application
Outline: (§2)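 Rating: 0–100 visual injury, 14 DAA. Application: acetone, 187 l/ha, 15–1000 g ai/ha, flat-fan track sprayer with nozzle 40–45 cm above soil or canopy. Post-emerge runs used 0.25% v/v surfactant on 2–3 leaf plants.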

[12] = system: upland rice (Oryza sp., var. Tebonnet, RICE); assay: Pre-emerge test, crop safety; conditions: crop damage rating 0-100, 14 days after application
Outline: as §2

[13] = system: barnyardgrass (Echinochloa crus-galli, ECHCG); assay: Post-emerge test, greenhouse herbicide activity screening; conditions: post-emerge, 14 days after application, rating scale 0-100
Outline: (§3)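 Applied at 15–1000 g ai/ha from acetone in 187 l/ha spray volume. Post-emergence applications included 0.25% v/v non-ionic surfactant and reached plants sown 8–21 days before. Pre-emergence applications were incorporated by surface watering. Efficacy or crop damage was rated on a 0–100 scale after 14 days.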

[14] = system: common ragweed (Ambrosia artemisizfolia L., AMBEL); assay: as above; conditions: post-emerge, 14 days after application, rating scale 0-100
Outline: as §3

[15] = system: green foxtail (Setaria viridis, SETVI); assay: as above; conditions: post-emerge, 14 days after application, rating scale 0-100
Outline: as §3

[16] = system: ivyleaf morningglory (Ipomoea hederacea, IPOHE); assay: as above; conditions: post-emerge, 14 days after application, rating scale 0-100
Outline: as §3

[17] = system: johnsongrass (Sorghum halepense, SORHA); assay: as above; conditions: post-emerge, 14 days after application, rating scale 0-100
Outline: as §3

[18] = system: lambsquarters (Chenopodium album, CHEAL); assay: as above; conditions: post-emerge, 14 days after application, rating scale 0-100
Outline: as §3

[19] = system: large crabgrass (Digitaria sanguinalis, DIGSA); assay: as above; conditions: post-emerge, 14 days after application, rating scale 0-100
Outline: as §3

[20] = system: redroot pigweed (Amaranthus retroflexus, AMARE); assay: as above; conditions: post-emerge, 14 days after application
Outline: as §3

[21] = system: sicklepod (Cassia obtusifolia, CASOB); assay: as above; conditions: post-emerge, 14 days after application, rating scale 0-100
Outline: as §3

[22] = system: velvetleaf (Abutilon theophrasti, ABUTH); assay: as above; conditions: post-emerge, 14 days after application, rating scale 0-100
Outline: as §3

[23] = system: field corn (Zea mays L., var. Dekalb 535, CORN); assay: Post-emerge test, crop safety; conditions: post-emerge, 14 days after application, rating scale 0-100
Outline: as §2

[24] = system: upland rice (Oryza sp., var. Tebonnet, RICE); assay: Post-emerge test, crop safety; conditions: post-emerge, 14 days after application, rating scale 0-100
Outline: as §2

[25] = 63 g ai/ha, rating scale 0-100 (0 no damage, 100 complete death)
[26] = 250 g ai/ha, rating scale 0-100

For `Cn1c(C(F)(F)F)cc(=O)n(-c2ccc(Cl)cc2NC(=O)C2CC2)c1=O` [2-204], the “Pre-emerge Herbicidal Activity AMARE” value ([1]; 63 g ai/ha) was 100, the “Pre-emerge Herbicidal Activity AMARE” value ([1]; 250 g ai/ha) was 100 and the “Pre-emerge Herbicidal Activity ECHCG” value ([2]; 63 g ai/ha) was 20. The “Pre-emerge Herbicidal Activity ECHCG” value ([2]; 250 g ai/ha) was 70, the “Pre-emerge Herbicidal Activity AMBEL” value ([3]; 63 g ai/ha) was 50 and the “Pre-emerge Herbicidal Activity AMBEL” value ([3]; 250 g ai/ha) was 85. For the same compound, the “Pre-emerge Herbicidal Activity SETVI” value ([4]; 63 g ai/ha) was 95, the “Pre-emerge Herbicidal Activity SETVI” value ([4]; 250 g ai/ha) was 99 and the “Pre-emerge Herbicidal Activity IPOHE” value ([5]; 63 g ai/ha) was 50. For the same compound, the “Pre-emerge Herbicidal Activity IPOHE” value ([5]; 250 g ai/ha) was 100, the “Pre-emerge Herbicidal Activity SORHA” value ([6]; 63 g ai/ha) was 40 and the “Pre-emerge Herbicidal Activity SORHA” value ([6]; 250 g ai/ha) was 80. For the same compound, the “Pre-emerge Herbicidal Activity CHEAL” value ([7]; 63 g ai/ha) was 70, the “Pre-emerge Herbicidal Activity CHEAL” value ([7]; 250 g ai/ha) was 100 and the “Pre-emerge Herbicidal Activity DIGSA” value ([8]; 63 g ai/ha) was 35. The “Pre-emerge Herbicidal Activity DIGSA” value ([8]; 250 g ai/ha) was 100, the “Pre-emerge Herbicidal Activity CASOB” value ([9]; 63 g ai/ha) was 60 and the “Pre-emerge Herbicidal Activity CASOB” value ([9]; 250 g ai/ha) was 75. The “Pre-emerge Herbicidal Activity ABUTH” value ([10]; 63 g ai/ha) was 99, the “Pre-emerge Herbicidal Activity ABUTH” value ([10]; 250 g ai/ha) was 100 and the “Pre-emerge Herbicidal Activity CORN” value ([11]; 63 g ai/ha) was 50. For the same compound, the “Pre-emerge Herbicidal Activity CORN” value ([11]; 250 g ai/ha) was 70, the “Pre-emerge Herbicidal Activity RICE” value ([12]; 63 g ai/ha) was 0 and the “Pre-emerge Herbicidal Activity RICE” value ([12]; 250 g ai/ha) was 30. For the same compound, the “phytotoxicity rating ECHCG” value ([13]; 63 g ai/ha) was 0, the “phytotoxicity rating ECHCG” value ([13]; 250 g ai/ha) was 0 and the “phytotoxicity rating AMBEL” value ([14]; 63 g ai/ha) was 10. The “phytotoxicity rating AMBEL” value ([14]; 250 g ai/ha) was 70, the “phytotoxicity rating SETVI” value ([15]; 63 g ai/ha) was 0 and the “phytotoxicity rating SETVI” value ([15]; 250 g ai/ha) was 20. The “phytotoxicity rating IPOHE” value ([16]; 63 g ai/ha) was 30, the “phytotoxicity rating IPOHE” value ([16]; 250 g ai/ha) was 60 and the “phytotoxicity rating SORHA” value ([17]; 63 g ai/ha) was 0. For the same compound, the “phytotoxicity rating SORHA” value ([17]; 250 g ai/ha) was 0, the “phytotoxicity rating CHEAL” value ([18]; 63 g ai/ha) was 20 and the “phytotoxicity rating CHEAL” value ([18]; 250 g ai/ha) was 95. For the same compound, the “phytotoxicity rating DIGSA” value ([19]; 63 g ai/ha) was 0, the “phytotoxicity rating DIGSA” value ([19]; 250 g ai/ha) was 10 and the “phytotoxicity rating AMARE” value [20, 25] was 50. For the same compound, the “phytotoxicity rating AMARE” value [20, 26] was 70, the “phytotoxicity rating CASOB” value ([21]; 63 g ai/ha) was 10 and the “phytotoxicity rating ABUTH” value ([22]; 63 g ai/ha) was 40. For the same compound, the “phytotoxicity rating ABUTH” value ([22]; 250 g ai/ha) was 80, the “phytotoxicity rating CORN (crop damage)” value ([23]; 63 g ai/ha) was 5 and the “phytotoxicity rating CORN (crop damage)” value ([23]; 250 g ai/ha) was 10. For the same compound, the “phytotoxicity rating RICE (crop damage)” value ([24]; 63 g ai/ha) was 0 and the “phytotoxicity rating RICE (crop damage)” value ([24]; 250 g ai/ha) was 30.

`Cn1c(C(F)(F)F)cc(=O)n(-c2ccc(C(N)=S)cc2NC(=O)c2ccc3ccccc3c2)c1=O` [2-205] was tested, and the “Pre-emerge Herbicidal Activity AMARE” value ([1]; 63 g ai/ha) was 100, the “Pre-emerge Herbicidal Activity AMARE” value ([1]; 250 g ai/ha) was 100 and the “Pre-emerge Herbicidal Activity ECHCG” value ([2]; 63 g ai/ha) was 80. The “Pre-emerge Herbicidal Activity ECHCG” value ([2]; 250 g ai/ha) was 99, the “Pre-emerge Herbicidal Activity AMBEL” value ([3]; 63 g ai/ha) was 80 and the “Pre-emerge Herbicidal Activity AMBEL” value ([3]; 250 g ai/ha) was 90. The “Pre-emerge Herbicidal Activity SETVI” value ([4]; 63 g ai/ha) was 70, the “Pre-emerge Herbicidal Activity SETVI” value ([4]; 250 g ai/ha) was 100 and the “Pre-emerge Herbicidal Activity IPOHE” value ([5]; 63 g ai/ha) was 0. The “Pre-emerge Herbicidal Activity IPOHE” value ([5]; 250 g ai/ha) was 95, the “Pre-emerge Herbicidal Activity SORHA” value ([6]; 63 g ai/ha) was 40 and the “Pre-emerge Herbicidal Activity SORHA” value ([6]; 250 g ai/ha) was 85. For the same compound, the “Pre-emerge Herbicidal Activity CHEAL” value ([7]; 63 g ai/ha) was 100, the “Pre-emerge Herbicidal Activity CHEAL” value ([7]; 250 g ai/ha) was 100 and the “Pre-emerge Herbicidal Activity DIGSA” value ([8]; 63 g ai/ha) was 70. The “Pre-emerge Herbicidal Activity DIGSA” value ([8]; 250 g ai/ha) was 99, the “Pre-emerge Herbicidal Activity CASOB” value ([9]; 63 g ai/ha) was 0 and the “Pre-emerge Herbicidal Activity CASOB” value ([9]; 250 g ai/ha) was 40. For the same compound, the “Pre-emerge Herbicidal Activity ABUTH” value ([10]; 63 g ai/ha) was 100, the “Pre-emerge Herbicidal Activity ABUTH” value ([10]; 250 g ai/ha) was 100 and the “Pre-emerge Herbicidal Activity CORN” value ([11]; 63 g ai/ha) was 0. For the same compound, the “Pre-emerge Herbicidal Activity CORN” value ([11]; 250 g ai/ha) was 50, the “Pre-emerge Herbicidal Activity RICE” value ([12]; 63 g ai/ha) was 20 and the “Pre-emerge Herbicidal Activity RICE” value ([12]; 250 g ai/ha) was 70. The “phytotoxicity rating ECHCG” value ([13]; 63 g ai/ha) was 0, the “phytotoxicity rating ECHCG” value ([13]; 250 g ai/ha) was 0 and the “phytotoxicity rating AMBEL” value ([14]; 63 g ai/ha) was 70. For the same compound, the “phytotoxicity rating AMBEL” value ([14]; 250 g ai/ha) was 100, the “phytotoxicity rating SETVI” value ([15]; 63 g ai/ha) was 10 and the “phytotoxicity rating SETVI” value ([15]; 250 g ai/ha) was 10. The “phytotoxicity rating IPOHE” value ([16]; 63 g ai/ha) was 100, the “phytotoxicity rating IPOHE” value ([16]; 250 g ai/ha) was 70 and the “phytotoxicity rating SORHA” value ([17]; 63 g ai/ha) was 0. For the same compound, the “phytotoxicity rating SORHA” value ([17]; 250 g ai/ha) was 0, the “phytotoxicity rating CHEAL” value ([18]; 63 g ai/ha) was 70 and the “phytotoxicity rating CHEAL” value ([18]; 250 g ai/ha) was 70. The “phytotoxicity rating DIGSA” value ([19]; 63 g ai/ha) was 10, the “phytotoxicity rating DIGSA” value ([19]; 250 g ai/ha) was 10 and the “phytotoxicity rating AMARE” value [20, 25] was 90. For the same compound, the “phytotoxicity rating AMARE” value [20, 26] was 40, the “phytotoxicity rating CASOB” value ([21]; 63 g ai/ha) was 90 and the “phytotoxicity rating CASOB” value ([21]; 250 g ai/ha) was 100. For the same compound, the “phytotoxicity rating ABUTH” value ([22]; 63 g ai/ha) was 100, the “phytotoxicity rating ABUTH” value ([22]; 250 g ai/ha) was 100 and the “phytotoxicity rating CORN (crop damage)” value ([23]; 63 g ai/ha) was 10. For the same compound, the “phytotoxicity rating CORN (crop damage)” value ([23]; 250 g ai/ha) was 20, the “phytotoxicity rating RICE (crop damage)” value ([24]; 63 g ai/ha) was 30 and the “phytotoxicity rating RICE (crop damage)” value ([24]; 250 g ai/ha) was 30.
